In a melting point compilation (Tetko et al.) one finds melting point data, which are given here for 123 compounds.

For `O=C(O)c1ccc(-c2cnccn2)cn1`, the melting point (commonly the temperature of the solid-liquid transition) is 199 to 201 °C. In turn, `NC(=O)c1ccc(CNc2cccc(F)c2)cc1` showed a melting point of 155 to 157 °C.

`Nc1ccc2c(c1)C(=O)NCC2` registered a melting point of 119 to 121 °C. As for `O=c1[nH]c2ccccc2c(=O)n1CCO`, the figure is 257 to 259 °C; as for `O=S(=O)(NC1CCNCC1)c1ccccc1`, 157 to 159 °C.

In the case of `Cc1csc(CC(N)=S)n1`, the melting point lay within 126 to 128 °C. As for `O=Cc1ccc(N2CCC(O)CC2)o1`, the figure is 103 to 105 °C; as for `Nc1cc(F)ccc1N1CC(C(F)(F)F)OC1=O` (stereo not drawn), 119 to 121 °C. As for `Nc1ccc(Oc2ncccn2)cc1`, the figure is 132 to 134 °C; as for `O=c1nc(Cl)sc2ccccc12`, 108 to 110 °C.

In turn, `COc1ccc(C(C)=O)cc1-c1ccccc1` yielded a melting point of 91 to 93 °C. On to `CCCOc1nc(C(=O)O)cc2ccccc12`, for which the melting point lay within 159 to 161 °C. In the case of `NC(=O)c1sc2cc(Cl)ccc2c1Cl` it was 269 to 271 °C. In the case of `NNC(=O)c1cccc2ncccc12` it was 130 to 132 °C. As for `O=C(O)CCc1ccc(S(=O)(=O)N2CCCC2)cc1`, the figure is 137 to 139 °C; as for `O=C(O)C1COc2ccc(Br)cc21` (stereo not drawn), 114 to 116 °C.

In turn, `O=C1NC(=O)C2(CC(C(=O)O)C2)N1` (stereo not drawn) showed a melting point of 246 to 248 °C. As for `CC(C)(C)OC(=O)Nc1ccc(N)cn1`, the figure is 157 to 159 °C; as for `O=c1c(Oc2ccccc2)coc2cc(O)ccc12`, 197 to 199 °C; as for `CC(O)c1ccc2c(c1)CC(=O)N2` (stereo not drawn), 171 to 173 °C.

Take `CC(C)Oc1cc(Br)ccc1C(=O)O`: the melting point is 86 to 88 °C.

`FC(F)c1nnc2ccc(Cl)nn12` registered a melting point of 101 to 103 °C. `Nc1ccccc1Sc1nncs1` showed a melting point of 109 to 111 °C.

Consider `COc1ccc(N)c(OC)n1`, for which the melting point lay in the range of 210 to 212 °C.

The compound `COC(=O)NC1(C(=O)O)CCCC1` gave a melting point of 131 to 133 °C. In the case of `Cn1c(=O)oc2ccc(N)cc21` it was 229 to 231 °C. Consider `CN1C(=O)C(C#N)=C(N)C12CCCC2`, for which the melting point lay in the range of 290 to 292 °C. As for `O=C(O)CSc1nncn1C1CC1`, the figure is 203 to 205 °C. In the case of `Cc1nnc(NN)[nH]c1=O`, the melting point lay in the range of 237 to 239 °C. In the case of `CC(=O)CC(=O)c1ccncc1` it was 63 to 65 °C; in that of `Nc1ccc(N2CCCCC2)c(S(=O)(=O)Nc2ccc(Cl)cc2)c1`, 145 to 147 °C. As for `O=C(CCl)NC(=O)Nc1ccc2c(c1)OCCCO2`, the figure is 110 to 112 °C; as for `Nc1nc2c(Br)cc(OC(F)(F)F)cc2s1`, 202 to 204 °C.

Consider `OC(CNCc1ccccc1)C(F)(F)F` (stereo not drawn), for which the melting point was 58 to 60 °C. As for `CC(=O)c1ccc(C#N)c(F)c1`, the figure is 62 to 64 °C; as for `CCOC(=O)CSc1nnc(-c2ccco2)o1`, 59 to 61 °C. As for `O=[N+]([O-])c1cccc(-c2cnc(CCCl)o2)c1`, the figure is 73 to 75 °C; as for `CC(C(=O)O)c1cccc(F)c1` (stereo not drawn), 59 to 61 °C. As for `COCC(C)n1c(SCC(=O)O)nnc1-c1ccccc1` (stereo not drawn), the figure is 139 to 141 °C.

`Nc1cccc(-n2ccnc2)c1` registered a melting point of 112 to 114 °C.

With `O=C(O)c1cccc(NC(=O)C2CC2)c1`, the melting point was 264 to 266 °C. In the case of `Cc1cc(C=O)c(C)n1-c1ccc2c(c1)OCCO2` it was 112 to 114 °C; in that of `CCOC(=O)CN(CCC#N)c1ccc(OC)cc1`, 61 to 63 °C.

In turn, `O=C(CC1CCCCC1)NCCC1CNc2ccccc21` (stereo not drawn) showed a melting point of 124 to 126 °C. As for `Clc1noc(-c2ccccc2)n1`, the figure is 31 to 33 °C; as for `COc1ccc(NS(=O)(=O)c2ccc(N)cc2)c(OC)c1`, 119 to 121 °C; as for `CC(=O)N1CCC(NC(=O)CCl)CC1`, 120 to 122 °C. As for `NS(=O)(=O)c1ccc(F)c(C(=O)O)c1F`, the figure is 139 to 141 °C; as for `Cc1cccc(C2CC2C(=O)O)c1` (stereo not drawn), 88 to 90 °C; as for `CC(C)(C)c1cnnc(N)n1`, 187 to 189 °C. In the case of `O=C(O)c1cnc(S)n1-c1ccccc1` it was 245 to 247 °C; in that of `O=C(CCCl)Nc1ccc(F)cc1`, 109 to 111 °C; in that of `N#CCS(=O)(=O)c1cc(Br)ccc1Br`, 134 to 136 °C. As for `O=C(c1ccc(F)cc1)c1ccccn1`, the melting point is 83 to 85 °C. As for `CC(O)CNc1cc(Cl)ncn1` (stereo not drawn), the figure is 101 to 103 °C; as for `CC(C)(C)C(=O)C(Cl)Cl`, 50 to 52 °C. Compound `Clc1ccc(-n2cccn2)c(Cl)c1` gave a melting point of 34 to 36 °C. In the case of `Cc1cc(CCC(=O)O)ccc1Br` it was 89 to 91 °C; in that of `O=C(NCc1nnc2n1CCC2)OCC(F)(F)F`, 131 to 133 °C. In the case of `COc1ccc2nc(C(=O)O)ccc2c1` it was 184 to 186 °C; in that of `ClC(c1ccccc1)c1nc(-c2ccccc2)no1` (stereo not drawn), 74 to 76 °C; in that of `Cc1ccc(C)c(SCc2nc3sc(C(=O)O)c(C)c3c(=O)[nH]2)c1`, 295 to 297 °C. In the case of `O=C1CCN(S(=O)(=O)c2cccs2)CC1` it was 127 to 129 °C; in that of `Cc1ccc(NC(=O)N(C)C)c(C(=O)O)c1`, 163 to 165 °C. As for `COc1ncccc1C(N)=O`, the melting point is 130 to 132 °C. In the case of `Nc1nc2ccccc2n1N` it was 259 to 261 °C; in that of `O=[N+]([O-])c1cc2nc(Cl)ccc2cc1F`, 130 to 132 °C; in that of `Oc1ccc(-c2cscn2)cc1`, 146 to 148 °C. `O=C(O)CCc1c(-c2ccccc2)[nH]c2ccc(F)cc12` returned a melting point of 161 to 163 °C.

For `CC(N)c1ccc(-n2ccnc2)cc1` (stereo not drawn), the melting point was 50 to 52 °C.

`CC(C)(C)OC(=O)N1CCNc2ccccc2C1` had a melting point of 69 to 71 °C. As for `CCC(=O)c1ccccc1OC(F)F`, the figure is 30 to 32 °C. In turn, `CN1CCCC1C(=O)O` (stereo not drawn) came in with a melting point of 111 to 113 °C. As for `O=c1[nH]c2ccccc2n2cncc12`, the figure is 349 to 351 °C. In the case of `O=C(O)Cc1ccc(S(=O)(=O)CC(F)F)cc1` it was 135 to 137 °C; in that of `COCCn1c(C)cc(C=O)c1C`, 44 to 46 °C; in that of `FC(F)(F)c1cccc(-c2ccc(Cl)nn2)c1`, 133 to 135 °C. Consider `COc1ccc(-c2noc(CCl)n2)cc1OC`, for which the melting point lay in the range of 101 to 103 °C. In the case of `Nc1nc(-c2cccc(Oc3ccccc3)c2)ns1` it was 138 to 140 °C; in that of `OCc1cn(-c2ccccc2Cl)nn1`, 87 to 89 °C; in that of `CSCCC(C(=O)O)N1C(=O)C2CCCCC2C1=O` (stereo not drawn), 268 to 270 °C. In the case of `O=c1[nH]nnn1-c1cccs1` it was 151 to 153 °C; in that of `Cc1ccc(OCc2nc(C=O)cs2)cc1`, 86 to 88 °C; in that of `NC(=S)c1ccc(NC(=O)C2CC2)cc1`, 179 to 181 °C.

As to `O=C(O)CNS(=O)(=O)c1ccc(Cl)c(Cl)c1`, the melting point is 127 to 129 °C. For the compound `O=C(CCl)Nc1ccc2c(c1)CCC2`, the melting point is 112 to 114 °C. As for `CC(NC(=O)CCl)c1ccc2c(c1)CCCC2` (stereo not drawn), the figure is 134 to 136 °C; as for `COC(=O)c1cc(Br)cc(N)c1Cl`, 73 to 75 °C.

For `CCC(=O)Nc1ccc(S(=O)(=O)Cl)cc1`, the melting point lay in the range of 109 to 111 °C. In the case of `NC(=O)C1=CCCC1` it was 166 to 168 °C; in that of `Cc1cc2n(n1)CCC(=O)N2`, 221 to 223 °C. As for `NC(=O)Nc1cccnc1`, the figure is 189 to 191 °C; as for `CC1C(O)CC2CC1C2(C)C` (stereo not drawn), 51 to 53 °C. On to `N#CCOc1ccc(CBr)cc1`, for which the melting point lay within 74 to 76 °C. As for `Cc1cc(C)c(N)c(Cl)n1`, the figure is 56 to 58 °C. `Clc1ccc(Cn2cncn2)cn1` came in with a melting point of 61 to 63 °C. In the case of `COC(=O)c1ccc(OCCBr)c(Cl)c1` it was 72 to 74 °C; in that of `CCOC(=O)c1cnn(-c2ccc(C(F)(F)F)cn2)c1C(F)(F)F`, 98 to 100 °C; in that of `O=C(CC(=O)Nc1cc(Cl)ccc1Cl)Nc1cc(Cl)ccc1Cl`, 226 to 228 °C. `O=C(O)CCc1ccc(S(=O)(=O)Cl)cc1` registered a melting point of 157 to 159 °C.

For `Cn1cnc(-c2ccccc2)c1N`, the melting point was 159 to 161 °C. With `CCS(=O)(=O)Nc1ccc(C(=O)O)cn1`, the melting point lay within 236 to 238 °C.

As to `CC(=O)OCc1ccc(Cl)cc1C#N`, the melting point is 54 to 56 °C.

Take `Nc1cc2c(cc1C(=O)O)OCCCO2`: the melting point lay within 160 to 162 °C. As for `Cc1ccc([N+](=O)[O-])c(C)c1S(=O)(=O)Cl`, the figure is 62 to 64 °C; as for `CCCNC(=O)c1ccccc1N`, 206 to 208 °C. The compound `Cc1csc(=O)n1CC(=O)O` yielded a melting point of 193 to 195 °C. In the case of `Fc1ccc(COc2ccc(CCl)cc2)cc1` it was 57 to 59 °C; in that of `Cc1nn(CC(C)C)c(C)c1CC(=O)O`, 106 to 110 °C; in that of `O=C(O)C1CCCn2ccnc21` (stereo not drawn), 156 to 158 °C.

`Cc1cc(NC(N)=O)ccc1Br` registered a melting point of 185 to 187 °C.

The compound `CCN1C(=O)C(=O)c2cc(C)ccc21` gave a melting point of 104 to 106 °C.

Take `Nc1nc2cnc(Cl)nc2s1`: the melting point was in the range of 209 to 211 °C. In the case of `Nc1ccc(S(=O)(=O)Nc2cccc(F)c2)cc1`, the melting point was 168 to 170 °C. In the case of `CCc1n[nH]c(N)n1` it was 154 to 156 °C; in that of `Nc1ccc2c(c1)nc1n2CCCCC1`, 180 to 182 °C; in that of `N#Cc1ccc(N2CCC(N)CC2)nc1`, 70 to 72 °C. As for `O=C(O)CCC(=O)NCC(=O)c1ccccc1`, the figure is 143 to 145 °C; as for `CC(C)C(=O)Nc1ccc(CNC(=O)n2ccnc2)cc1`, 203 to 205 °C. As for `N#Cc1ccc(N2CCCC2=O)cc1`, the figure is 106 to 108 °C.

`CC(C)(C)n1ccnc1SCC(=O)O` gave a melting point of 174 to 176 °C.

`Nc1ccn(Cc2cn3ccccc3n2)n1` registered a melting point of 144 to 146 °C. The compound `Cc1cc(=O)oc2cc(OCCBr)ccc12` registered a melting point of 102 to 104 °C.
